Consider seven molecules from paper PMC8200971, “Design, Synthesis, Biological Evaluation and Silico Prediction of Novel Sinomenine Derivatives” (Molecules, 2021).

Data set [1] has as its system Hek293 (human embryonic kidney cell lines). The data set can be described thus: CCK8 cytotoxicity assay, normal cells. The format is cell-based. As to conditions: Homo sapiens, HEK293, 60 h; for IC50: read-out: IC50 Hek293; for inhibition at 2.5 µM / inhibition at 25 µM: read-out: growth inhibition ratio (mean ± SD). The procedure: (§1) Cytotoxicity screens were performed to assess the in vitro anticancer activity of the synthesized sinomenine derivatives 6a–6l on the various cancer cell lines MCF-7, Hela, SW480, and A549, as well as on Hek293 as a normal cell line, at doses of 2.5 and 25 μM. The obtained inhibition ratios data were used to construct a heat map (Figure 3, Tables S1 and S2) in order to select compounds that exert cancer cell line-specific cytotoxicity. Then, the IC50 values of the promising compound were determined. Cisplatin was used as a reference standard. The antiproliferative activity was based on the evaluation of the percent viability using the CCK8 assay, which is a rapid and sensitive method for determining the number of viable cells in culture. In the presence of electronic coupling reagents, WST-8 can be reduced by a dehydrogenase in the mitochondria to produce a highly water-soluble orange-yellow formazan product. Its color is proportional to the proliferation of the number of viable cells and is related to cytotoxicity. Using a microplate reader to measure the OD value can indirectly reflect the number of living cells at 450 nm wavelength.
(§2) To understand structure–function relationships, these selected compounds were subjected to subsequent analyses. All six compounds (6a and 6c–6g) were further examined to determine their IC50 concentrations on the previously mentioned cell lines, and their efficacy was compared to the reference drug cisplatin. For this, six compounds and cisplatin were evaluated on Hela, MCF-7, SW480, and A549, and on noncancerous Hek293 cell lines at various concentrations for 60 h. IC50 values were calculated (Table 2).
(§3) The MCF-7 (human breast cancer cell lines), Hela (human cervical cancer cell lines), SW480 (human colon adenocarcinoma cell lines), A549 (human lung adenocarcinoma cell lines) and nontoxic normal cells Hek293 (human embryonic kidney cell lines) cells were used to measure the cytotoxicity of the 6a–6l. They were obtained from the Beijing Normal University (Beijing, China). The test cell lines were cultured in DMEM, IMDM, F12 and DMEM nutrient medium containing 10% heat-inactivated fetal bovine serum, […] and 100 units/mL penicillin in a humified, 5% (v/v) CO2 atmosphere at 37 °C.
(§4) Cell viability was estimated using the CCK8 assay. Tumor cells ([…]) viz. MCF-7, Hela, SW480, A549 and nontoxic normal cells Hek293 were seeded in medium containing Corning® 96-well tissue culture plates at confluences of […], respectively, in Incucyte ZOOM. Fresh medium (100 μL) containing different concentrations of the test sample was added after 12 h of seeding. The microtiter plates were incubated at 37 °C in a humidified incubator with 5% CO2 for 60 h. Triplicates from each concentration were used. Negative control cells were incubated without sample and cisplatin as a positive control. At the end of treatment, the numbers of viable cells were determined by the CCK8 test. In brief, the media was removed from the 96 well plates and replaced with 100 μL of fresh culture medium with 10% CCK8 solution added to each well including the untreated controls. The 96 well plates were then incubated at 37 °C and 5% CO2 for 1–4 h. Then, the absorbance was measured at 450 nm using a BMG LABTECH®-POLAR star Omega microplate reader (Ortenberg, Germany) to determine the number of viable cells, and the percentage of viability was calculated as ((ODt- ODb/ODc- ODb)) × 100%, where ODt is the mean optical density of wells treated with the tested sample, ODc is the mean optical density of wells treated with DMSO and ODb is the mean optical density of PBS wells without cells. The relation between surviving cells and drug concentrations were plotted to get the survival curve of each tumor cell line after treatment with the specified compound. […]
Background: Tetrazolium dyes change colour on reduction, which living cells bring about.

Data set [2] concerns Hela (human cervical cancer cell lines). The data set can be described thus: CCK8 cytotoxicity assay. Format: cell-based. As to conditions: Homo sapiens, HeLa, 60 h; for IC50: read-out: IC50 Hela; for inhibition at 2.5 µM / inhibition at 25 µM: read-out: growth inhibition ratio (mean ± SD). How it is done: as §1, §2, §3, §4
Data set [3] has as its system SW480 (human colon adenocarcinoma cell lines). The data set can be described thus: CCK8 cytotoxicity assay. Format: cell-based. As to conditions: Homo sapiens, SW480, 60 h; for IC50: read-out: IC50 SW480; for inhibition at 2.5 µM / inhibition at 25 µM: read-out: growth inhibition ratio (mean ± SD). The procedure: as §1, §2, §3, §4
Data set [4] deals with MCF-7 (human breast cancer cell lines). Kind of data set: CCK8 cytotoxicity assay. Format: cell-based. Particulars: Homo sapiens, MCF7, 60 h; for IC50: read-out: IC50 MCF-7; for inhibition at 2.5 µM / inhibition at 25 µM: read-out: growth inhibition ratio (mean ± SD). How it is done:
as §1, §2, §3, §4

Data set [5] deals with A549 (human lung adenocarcinoma cell lines). Kind of data set: CCK8 cytotoxicity assay. The format is cell-based. Particulars: Homo sapiens, A549, 60 h; for IC50: read-out: IC50 A549; for inhibition at 2.5 µM / inhibition at 25 µM: read-out: growth inhibition ratio (mean ± SD). How it is done:
as §1, §2, §3, §4

Each structure is given as a SMILES string.

For orientation: melting point means the temperature, or range, at which the solid turns liquid. The IC50 is the midpoint of a concentration-inhibition curve. Regarding `COC1=C[C@@H]2[C@@H]3Cc4c(CN5CCCC5)cc(OC)c(OC(=O)Cc5ccc(Cl)cc5Cl)c4[C@]2(CCN3C)CC1=O` [6d, (4bR,8aS,9S)-3,7-dimethoxy-11-methyl-6-oxo-1-(pyrrolidin-1-ylmethyl)-6,8a,9,10-tetrahydro-5H-9,4b-(epiminoethano)phenanthren-4-yl 2-(2,4-dichlorophenyl)acetate], the melting point lay within 82 to 86 °C. In data set [1], the 50% inhibitory concentration (IC50) was found to be 3.46 ± 0.02 µM, the inhibition at 2.5 µM came out at 42.6 ± 0.84% and the inhibition at 25 µM was determined as 84.6 ± 4.34%. Moreover, in data set [2], the concentration for half-maximal inhibition (IC50) stood at 8.2 ± 0.52 µM, the inhibition at 2.5 µM worked out at 10.3 ± 4.44% and the inhibition at 25 µM was determined as 93.1 ± 0.17%. Also, in data set [3], the half-inhibitory concentration (IC50) came to 6.08 ± 0.28 µM, the inhibition at 2.5 µM is 29.1 ± 6.92% and the inhibition at 25 µM worked out at 94.2 ± 3.21%. Further, in data set [4], the half-inhibitory concentration (IC50) worked out at 5.73 ± 0.36 µM, the inhibition at 2.5 µM amounted to 0% and the inhibition at 25 µM turned out to be 88.6 ± 2.73%. In data set [5], the half-maximal inhibitory concentration (IC50) turned out to be 11.6 ± 1.61 µM, the inhibition at 2.5 µM was 29.59 ± 0.16% and the inhibition at 25 µM amounted to 93.02 ± 0.2%.
`COC1=C[C@@H]2[C@@H]3Cc4c(CN5CCCC5)cc(OC)c(OC(=O)Cc5cccc(Cl)c5)c4[C@]2(CCN3C)CC1=O` [6e, (4bR,8aS,9S)-3,7-dimethoxy-11-methyl-6-oxo-1-(pyrrolidin-1-ylmethyl)-6,8a,9,10-tetrahydro-5H-9,4b-(epiminoethano)phenanthren-4-yl 2-(3-chlorophenyl)acetate] gave a melting point of 68 to 72 °C. In data set [1], the half-maximal inhibitory concentration (IC50) was 16.6 ± 0.64 µM, the inhibition at 2.5 µM was 14.4 ± 2.54% and the inhibition at 25 µM worked out at 63.3 ± 11.4%. Moreover, in data set [2], the IC50 came out at 13.3 ± 0.95 µM, the inhibition at 2.5 µM turned out to be 3.21 ± 2.37% and the inhibition at 25 µM came to 80.9 ± 2.05%. Also, in data set [3], the 50% inhibitory concentration (IC50) was over 25 µM, the inhibition at 2.5 µM came to 29.4 ± 7.71% and the inhibition at 25 µM stood at 61 ± 7.14%. Also, in data set [4], the half-inhibitory concentration (IC50) is 14.9 ± 0.15 µM, the inhibition at 2.5 µM is 6.92 ± 2.62% and the inhibition at 25 µM turned out to be 77.85 ± 0.45%. Further, in data set [5], the IC50 was determined as 17.9 ± 0.74 µM, the inhibition at 2.5 µM is 25.6 ± 1% and the inhibition at 25 µM stood at 61.06 ± 0.13%.
For `COC1=C[C@@H]2[C@@H]3Cc4c(CN5CCCC5)cc(OC)c(OC(=O)Cc5ccccc5C)c4[C@]2(CCN3C)CC1=O` [6f, (4bR,8aS,9S)-3,7-dimethoxy-11-methyl-6-oxo-1-(pyrrolidin-1-ylmethyl)-6,8a,9,10-tetrahydro-5H-9,4b-(epiminoethano)phenanthren-4-yl 2-(o-tolyl)acetate], the melting point lay in the range of 72 to 75 °C. In data set [1], the concentration for half-maximal inhibition (IC50) amounted to 10.1 ± 0.42 µM, the inhibition at 2.5 µM was 16.8 ± 2.39% and the inhibition at 25 µM came to 64.3 ± 14.6%. For the same molecule, in data set [2], the IC50 is over 25 µM, the inhibition at 2.5 µM came out at 7.82 ± 4.1% and the inhibition at 25 µM amounted to 58.7 ± 2.64%. Moreover, in data set [3], the IC50 is over 25 µM, the inhibition at 2.5 µM is 20.8 ± 5.63% and the inhibition at 25 µM turned out to be 55.7 ± 6.94%. Besides, in data set [4], the IC50 was over 25 µM, the inhibition at 2.5 µM stood at 0% and the inhibition at 25 µM worked out at 31.4 ± 3.72%. Further, in data set [5], the half-maximal inhibitory concentration (IC50) came to 25.1 ± 1.72 µM, the inhibition at 2.5 µM turned out to be 25 ± 1.05% and the inhibition at 25 µM is 57.09 ± 0.06%.
`COC1=C[C@@H]2[C@@H]3Cc4c(CN5CCCC5)cc(OC)c(OC(=O)Cc5ccc(Cl)c(Cl)c5)c4[C@]2(CCN3C)CC1=O` [6g, (4bR,8aS,9S)-3,7-dimethoxy-11-methyl-6-oxo-1-(pyrrolidin-1-ylmethyl)-6,8a,9,10-tetrahydro-5H-9,4b-(epiminoethano)phenanthren-4-yl 2-(3,4-dichlorophenyl)acetate]: the melting point was 160 to 164 °C. Moreover, in data set [1], the half-maximal inhibitory concentration (IC50) amounted to 4.71 ± 0.48 µM, the inhibition at 2.5 µM turned out to be 9.72 ± 1.96% and the inhibition at 25 µM is 59.9 ± 16.9%. Moreover, in data set [2], the IC50 was found to be 11.9 ± 0.6 µM, the inhibition at 2.5 µM was determined as 35.3 ± 4.37% and the inhibition at 25 µM stood at 93.85 ± 0.2%. In addition, in data set [3], the IC50 is over 25 µM, the inhibition at 2.5 µM is 11.8 ± 7.5% and the inhibition at 25 µM was 56 ± 5.88%. Moreover, in data set [4], the IC50 is over 25 µM, the inhibition at 2.5 µM turned out to be 6.59 ± 4.98% and the inhibition at 25 µM stood at 34.6 ± 2.06%. Also, in data set [5], the 50% inhibitory concentration (IC50) is over 25 µM, the inhibition at 2.5 µM amounted to 20.3 ± 0.78% and the inhibition at 25 µM was found to be 43.9 ± 1.11%.
The molecule `COC1=C[C@@H]2[C@@H]3Cc4c(CN5CCCC5)cc(OC)c(OC(=O)Cc5ccccc5)c4[C@]2(CCN3C)CC1=O` [6h, (4bR,8aS,9S)-3,7-dimethoxy-11-methyl-6-oxo-1-(pyrrolidin-1-ylmethyl)-6,8a,9,10-tetrahydro-5H-9,4b-(epiminoethano)phenanthren-4-yl 2-phenylacetate] yielded a melting point of 165 to 168 °C. Besides, in data set [1], the inhibition at 2.5 µM amounted to 17.4 ± 1.49% and the inhibition at 25 µM was determined as 46 ± 22.4%. Moreover, in data set [2], the inhibition at 2.5 µM was 11.2 ± 10% and the inhibition at 25 µM was found to be 21.2 ± 4.4%. In data set [3], the inhibition at 2.5 µM is 28.2 ± 10.3% and the inhibition at 25 µM was found to be 37.8 ± 9.83%. Moreover, in data set [4], the inhibition at 2.5 µM was found to be 5.79 ± 10% and the inhibition at 25 µM was 0%. Also, in data set [5], the inhibition at 2.5 µM was 20.6 ± 0.77% and the inhibition at 25 µM came out at 52.3 ± 0.76%.
`COC1=C[C@@H]2[C@@H]3Cc4c(CN5CCCC5)cc(OC)c(OC(=O)Cc5ccc(OC)cc5)c4[C@]2(CCN3C)CC1=O` [6i, (4bR,8aS,9S)-3,7-dimethoxy-11-methyl-6-oxo-1-(pyrrolidin-1-ylmethyl)-6,8a,9,10-tetrahydro-5H-9,4b-(epiminoethano)phenanthren-4-yl 2-(4-methoxyphenyl)acetate] had a melting point of 76 to 79 °C. Moreover, in data set [1], the inhibition at 2.5 µM came out at 13.3 ± 0.21% and the inhibition at 25 µM stood at 46.9 ± 16.7%. For the same molecule, in data set [2], the inhibition at 2.5 µM was 7.79 ± 6.01% and the inhibition at 25 µM worked out at 29.2 ± 5.29%. Further, in data set [3], the inhibition at 2.5 µM was 28.6 ± 9.02% and the inhibition at 25 µM stood at 38.9 ± 9.65%. Also, in data set [4], the inhibition at 2.5 µM was found to be 11.7 ± 5.99% and the inhibition at 25 µM was found to be 0%. Also, in data set [5], the inhibition at 2.5 µM was 23.5 ± 0.76% and the inhibition at 25 µM amounted to 51.77 ± 0.5%.
In turn, `COC1=C[C@@H]2[C@@H]3Cc4c(CN5CCCC5)cc(OC)c(OC(=O)Cc5ccc([N+](=O)[O-])cc5)c4[C@]2(CCN3C)CC1=O` [6j, (4bR,8aS,9S)-3,7-dimethoxy-11-methyl-6-oxo-1-(pyrrolidin-1-ylmethyl)-6,8a,9,10-tetrahydro-5H-9,4b-(epiminoethano)phenanthren-4-yl 2-(4-nitrophenyl)acetate] had a melting point of 82 to 85 °C. Further, in data set [1], the inhibition at 2.5 µM was 20.5 ± 6.76% and the inhibition at 25 µM is 56.1 ± 7.28%. Besides, in data set [2], the inhibition at 2.5 µM is 0% and the inhibition at 25 µM is 3.75 ± 0.91%. Besides, in data set [3], the inhibition at 2.5 µM was found to be 0% and the inhibition at 25 µM came out at 0.92 ± 1.34%. In data set [4], the inhibition at 2.5 µM was 3.64 ± 6.3% and the inhibition at 25 µM is 1.97 ± 2.75%. In data set [5], the inhibition at 2.5 µM is 15.4 ± 5.6% and the inhibition at 25 µM was 38.7 ± 8.59%.
